ChEMBL document CHEMBL1201862, “PubChem BioAssay data set” (2004)
Values joined by “and” are separate entries in the source; they are usually repeats but may differ in a detail not shown here. Identical values can stand only once.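 Five compound concentrations were applied to cells in 96-well plates for 48 hours; endpoints were derived by simple linear interpolation of the resulting dose-response curve. GI50 marks 50% less growth.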 Active and inactive are the calls of the source. Cut-off read from the data, not from the text of the source: active = GI50 up to about 1.1 µM and inactive = higher.

Key:
Experiment in all cases: NCI tumour cell line growth inhibition, 48 h
CCRF-CEM = system: CCRF-CEM
DU-145 = system: DU-145
HCC 2998 = system: HCC 2998
HCT-116 = system: HCT-116
HCT-15 = system: HCT-15
LOX IMVI = system: LOX IMVI
M14 = system: M14
Malme-3M = system: Malme-3M
NCI-H23 = system: NCI-H23
NCI-H460 = system: NCI-H460
OVCAR-4 = system: OVCAR-4
OVCAR-8 = system: OVCAR-8
SK-MEL-28 = system: SK-MEL-28
SR = system: SR
SW-620 = system: SW-620
U-251 = system: U-251

Row | Structure (SMILES) | GI50 (CCRF-CEM) | GI50 (DU-145) | GI50 (HCC 2998) | GI50 (HCT-116) | GI50 (HCT-15) | GI50 (LOX IMVI) | GI50 (M14) | GI50 (Malme-3M) | GI50 (NCI-H23) | GI50 (NCI-H460) | GI50 (OVCAR-4) | GI50 (OVCAR-8) | GI50 (SK-MEL-28) | GI50 (SR) | GI50 (SW-620) | GI50 (U-251)
1 | CC(=O)OCCN1c2ccccc2Sc2cnccc21 | > 10 µM (inactive) | > 10 µM (inactive) | > 10 µM (inactive) | > 10 µM (inactive) | > 10 µM | > 10 µM (inactive) | > 10 µM (inactive) | > 10 µM (inactive) | > 10 µM (inactive) | > 10 µM (inactive) | > 10 µM (inactive) | > 10 µM (inactive) | > 10 µM (inactive) | > 10 µM (inactive) | > 10 µM (inactive) | > 10 µM (inactive)
2 | NCCCc1nonc1C(=O)O | > 100 µM (inactive) | > 100 µM (inactive) | > 100 µM (inactive) | > 100 µM (inactive) | > 100 µM | > 100 µM (inactive) | > 100 µM (inactive) | > 100 µM (inactive) | > 100 µM (inactive) | > 100 µM (inactive) | > 100 µM (inactive) | > 100 µM (inactive) | > 100 µM (inactive) | > 100 µM (inactive) | > 100 µM (inactive) | > 100 µM (inactive)
3 | CC(=O)N1C(C(=O)NNc2ccccc2)CSC1c1ccccc1 (stereo not given) | 77.3 µM (inactive) | > 100 µM (inactive) | 23 µM (inactive) | > 100 µM (inactive) | 1.56 µM | 3.16 µM (inactive) | 16.7 µM (inactive) | > 100 µM (inactive) | > 100 µM (inactive) | > 100 µM (inactive) | > 100 µM (inactive) | > 100 µM (inactive) | – | > 100 µM (inactive) | > 100 µM (inactive) | > 100 µM (inactive)
4 | COC(=O)CCC1(O)C=CC(=O)C=C1 | 43.4 µM (inactive) | 36.8 µM (inactive) | 63.5 µM (inactive) | 34 µM (inactive) | 18.4 µM | 30.3 µM (inactive) | 40.8 µM (inactive) | 17 µM (inactive) | 33.7 µM (inactive) | 28.2 µM (inactive) | 65.8 µM (inactive) | 31.7 µM (inactive) | 23.2 µM (inactive) | 25 µM (inactive) | 29.8 µM (inactive) | 21.1 µM (inactive)
5 | CC1=NN(c2nc(N)nc(CBr)n2)C(C)(C)C1 | 0.229 µM (active) | 3.3 µM (inactive) | 16.1 µM (inactive) | 6.27 µM (inactive) | 3.61 µM | 0.708 µM (active) | 5.79 µM (inactive) | 2.45 µM (inactive) | 9.86 µM (inactive) | 7.64 µM (inactive) | 7.4 µM (inactive) | 5.45 µM (inactive) | 13.7 µM (inactive) | 2.88 µM (inactive) | 4.19 µM (inactive) | 6.76 µM (inactive)
6 | COC(=O)CCCC(=O)NC1=C(Nc2ccc(OC)cc2)C(=O)c2ccccc2C1=O | 20.8 µM (inactive) | 16.3 µM (inactive) | 20.6 µM (inactive) | 19.7 µM (inactive) | 23.8 µM | 25.9 µM (inactive) | 19.4 µM (inactive) | 3.4 µM (inactive) | 20.4 µM (inactive) | 15.9 µM (inactive) | 17.8 µM (inactive) | 31 µM (inactive) | 20.9 µM (inactive) | 33.1 µM (inactive) | 40.7 µM (inactive) | 31.4 µM (inactive)
7 | Cc1cn(C2CC(ON3C(=O)c4ccccc4C3=O)C(CO)O2)c(=O)[nH]c1=O (stereo not given) | > 10 µM (inactive) | > 10 µM (inactive) | > 10 µM (inactive) | > 10 µM (inactive) | > 10 µM | > 10 µM (inactive) | > 10 µM (inactive) | > 10 µM (inactive) | > 10 µM (inactive) | > 10 µM (inactive) | > 10 µM (inactive) | > 10 µM (inactive) | – | > 10 µM (inactive) | > 10 µM (inactive) | > 10 µM (inactive)
8 | C=C(C(=O)O)[C@@H]1C[C@@H]2O[C@H]1[C@@H](O)[C@@H](C)CCCC(C)=CCC[C@@]2(C)O | 33.3 µM (inactive) and > 46.8 µM (inactive) | > 100 µM (inactive) | > 100 µM (inactive) | 64.1 µM (inactive) and > 83.4 µM (inactive) | > 100 µM and 78.3 µM | 41.3 µM (inactive) and > 47.2 µM (inactive) | > 100 µM (inactive) and > 77.4 µM (inactive) | > 100 µM (inactive) and > 72.9 µM (inactive) | > 100 µM (inactive) | > 100 µM (inactive) | > 100 µM (inactive) | > 100 µM (inactive) | > 100 µM (inactive) | 49.1 µM (inactive) | 39.8 µM (inactive) and 58.1 µM (inactive) | > 100 µM (inactive) and 97.3 µM (inactive)
9 | O=C(CC(C(=O)c1cccs1)c1ccsc1)c1ccsc1 (stereo not given) | 29 µM (inactive) | 44.8 µM (inactive) | 34.1 µM (inactive) | 27.4 µM (inactive) | 42.1 µM | 22.8 µM (inactive) | 16.9 µM (inactive) | 78.5 µM (inactive) | 53 µM (inactive) | 23 µM (inactive) | 27.4 µM (inactive) | 39.4 µM (inactive) | 50.5 µM (inactive) | 32.6 µM (inactive) | 29.7 µM (inactive) | 46.3 µM (inactive)
10 | COc1cccc(C2CC(C)(N3CCCC3)Oc3cc4c(cc32)OCO4)c1O (stereo not given) | 15.2 µM (inactive) | 32 µM (inactive) | 23 µM (inactive) | 13.2 µM (inactive) | 11.3 µM | 28.8 µM (inactive) | 17.3 µM (inactive) | 24.8 µM (inactive) | 27.4 µM (inactive) | 28.2 µM (inactive) | 48.1 µM (inactive) | 30.2 µM (inactive) | 22.5 µM (inactive) | 3.81 µM (inactive) | 25.8 µM (inactive) | 25.1 µM (inactive)
11 | CC1(C)OC(=O)C(C#N)=C1C[n+]1ccccc1 | > 10 µM (inactive) | > 10 µM (inactive) | > 10 µM (inactive) | – | > 10 µM | > 10 µM (inactive) | > 10 µM (inactive) | > 10 µM (inactive) | > 10 µM (inactive) | > 10 µM (inactive) | > 10 µM (inactive) | > 10 µM (inactive) | > 10 µM (inactive) | > 10 µM (inactive) | > 10 µM (inactive) | > 10 µM (inactive)
12 | CC(=O)OCC1OC(N2C(=O)CC(N)=Nc3ccccc32)C(OC(C)=O)C(OC(C)=O)C1OC(C)=O (stereo not given) | > 100 µM (inactive) | 63.4 µM (inactive) | 75.7 µM (inactive) | 81.8 µM (inactive) | 44.8 µM | 37.5 µM (inactive) | 38.6 µM (inactive) | 28.9 µM (inactive) | 43.2 µM (inactive) | 55.5 µM (inactive) | 57.8 µM (inactive) | 32.4 µM (inactive) | 38.4 µM (inactive) | 41 µM (inactive) | 87.5 µM (inactive) | 59.7 µM (inactive)
13 | CC(C)/C(Cl)=N/OC(=O)Nc1ccc(Br)cc1 | 1.36 µM (inactive) | 13.7 µM (inactive) | 15.5 µM (inactive) | 2.9 µM (inactive) | 2.12 µM | 1.32 µM (inactive) | 2.78 µM (inactive) | 1.69 µM (inactive) | 13.3 µM (inactive) | 15 µM (inactive) | 12.7 µM (inactive) | 14.6 µM (inactive) | 3.76 µM (inactive) | 1.83 µM (inactive) | 2.2 µM (inactive) | 18.7 µM (inactive)
14 | CCOC(=O)C1Cc2ccc(C)cc2C1=O (stereo not given) | 34 µM (inactive) | > 100 µM (inactive) | > 100 µM (inactive) | > 100 µM (inactive) | 61.4 µM | 62.5 µM (inactive) | > 100 µM (inactive) | 70 µM (inactive) | 55.6 µM (inactive) | > 100 µM (inactive) | 81.7 µM (inactive) | > 100 µM (inactive) | 23.8 µM (inactive) | 31.7 µM (inactive) | 88.1 µM (inactive) | 58.1 µM (inactive)
15 | CN1C(=O)CC2CCC(=O)N2c2cccnc21 (stereo not given) | > 100 µM (inactive) | > 100 µM (inactive) | > 100 µM (inactive) | > 100 µM (inactive) | > 100 µM | > 100 µM (inactive) | > 100 µM (inactive) | > 100 µM (inactive) | > 100 µM (inactive) | > 100 µM (inactive) | > 100 µM (inactive) | > 100 µM (inactive) | > 100 µM (inactive) | > 100 µM (inactive) | > 100 µM (inactive) | > 100 µM (inactive)
16 | Cc1n[nH]c(=O)n1C1CCCC1 | > 100 µM (inactive) | > 100 µM (inactive) | > 100 µM (inactive) | > 100 µM (inactive) | > 100 µM | > 100 µM (inactive) | > 100 µM (inactive) | > 100 µM (inactive) | > 100 µM (inactive) | > 100 µM (inactive) | > 100 µM (inactive) | > 100 µM (inactive) | > 100 µM (inactive) | > 100 µM (inactive) | > 100 µM (inactive) | > 100 µM (inactive)
17 | O=c1cc(C(F)(F)F)c2cc3c(cc2o1)NCCC3 | > 100 µM (inactive) | > 100 µM (inactive) | > 100 µM (inactive) | 28.8 µM (inactive) | > 100 µM | > 100 µM (inactive) | > 100 µM (inactive) | > 100 µM (inactive) | > 100 µM (inactive) | > 100 µM (inactive) | 70.6 µM (inactive) | 42.2 µM (inactive) | > 100 µM (inactive) | > 100 µM (inactive) | > 100 µM (inactive) | 23.1 µM (inactive)
18 | CC(C)(C)OC(=O)Nc1nnc(S(N)(=O)=O)s1 | > 100 µM (inactive) | > 100 µM (inactive) | > 100 µM (inactive) | > 100 µM (inactive) | > 100 µM | > 100 µM (inactive) | > 100 µM (inactive) | > 100 µM (inactive) | > 100 µM (inactive) | > 100 µM (inactive) | > 100 µM (inactive) | > 100 µM (inactive) | > 100 µM (inactive) | > 100 µM (inactive) | > 100 µM (inactive) | > 100 µM (inactive)
